Earlier results on two compounds are cited in patent publication US20070021351A1, “Liver/plasma concentration ratio for dosing hepatitis C virus protease inhibitor” (Schering Corporation, priority 2005, published 2007).

SMILES strings stand for the structures.

The conditions of the data set: in vivo; cited from earlier work.

`CCO` [ethanol, Ethanol]: the volume of distribution entry is recorded as “about 35 L”.
For `C[C@H]1O[C@@H](O[C@H]2[C@@H](O)C[C@H](O[C@H]3[C@@H](O)C[C@H](O[C@H]4CC[C@@]5(C)[C@H](CC[C@@H]6[C@@H]5C[C@@H](O)[C@]5(C)[C@@H](C7=CC(=O)OC7)CC[C@]65O)C4)O[C@@H]3C)O[C@@H]2C)C[C@H](O)[C@@H]1O` [digoxin, reference compound], the volume of distribution is roughly 450 L.
